In one series the test system is antiserotonin activity. Conditions: rat; cited from earlier work.
In series [1] the test system is apomorphine-induced stereotypy. The series can be described thus: Antidopaminergic activities in rat apomorphine-induced stereotypy model. It is filed as in vivo, SD rats. The conditions noted are these: for Efficacy (positive numbers/total numbers): placebo tape 1 cm × 1 cm. As to the method: […]. The test was carried out according to the description of Jpn. J. Pharmacol. 53, 321-329 (1990).
Specifically, 7-week-old SD rats were dehaired the back on the day before the test, patched the tapes on the back, and further water was administered orally in an amount 5 ml/Kg. After the patching, an apomorphine hydrochloride was administered via tail veins in a dose of 1.25 mg/Kg at predetermined times as assessment times, and stereotypy was observed.
7-Week-old SD rats were dehaired the back on the day before the test, patched the placebo tape (Reference Formulation 1) containing no perospirone prepared in Reference Example 1 on the back, and administered orally perospirone hydrochloride hydrate in a dose of 10 mg/Kg or 2 mg/Kg. Thereafter, an apomorphine hydrochloride was administered via tail veins in a dose of 1.25 mg/Kg at predetermined times as assessment times. An inhibitory effect of an apomorphine-induced behavior was determined in the same manner as Experiment 2.

Series [2] can be described thus: Blood kinetics assessment: serum concentrations of perospirone and ID-15036 after transdermal or oral administration. The conditions noted are these: rat, oral administration, first measurement point (FIG. 5). Format: in vivo, SD male rats. As to the method:
7-Week-old SD male rats were anesthetized and dehaired the abdomen. The rats were administered with transdermal formulations Formulations 1 to 8 in the sites of the dehaired abdomen and constantly collected blood, and serums were separated. The serums were partitioned and extracted with n-hexane-chloroform (7:3) and about 0.0005M aqueous sodium hydroxide solution, and the organic layers were evaporated and dried to solids. The resulting solids were dissolved, and serum concentrations of perospirone and its main metabolite ID-15036 were determined by quantification via reverse phase high performance liquid chromatography. […]
7-Week-old SD male rats were administered orally with 10 mg/kg of a solution of perospirone hydrochloride hydrate in a distilled water for injection in a concentration of 2 mg/ml, and the blood was collected with lapse of time. Serum concentrations of perospirone and the main metabolite ID-15036 were determined in the same manner as Experiment 3. […]

Series [3] relates to tryptamine-induced clonic seizures of forepaws. The series can be described thus: Antiserotonin activities in rat tryptamine-induced clonic seizures of forepaws model. It is filed as in vivo, SD rats. Conditions: for Efficacy (positive numbers/total numbers): placebo tape 1 cm × 1 cm. How it is done:
Antiserotonin activities of the perospirone tape prepared in Example 14 (Formulation 10) and the perospirone tape prepared in Example 15 (Formulation 11) were assessed in a rat tryptamine-induced clonic seizures of forepaws model. The test was carried out according to the description of Jpn. J. Pharmacol. 53, 321-329 (1990).
Specifically, 7-week-old SD rats were dehaired the back on the day before the test, the tapes were patched on the back, and further water was administered orally in an amount of 5 ml/Kg. After the patching of tapes, a tryptamine hydrochloride was administered via tail veins in a dose of 40 mg/Kg at predetermined times as assessment times, and appearance of a clonic seizures of forepaws was observed.
7-Week-old SD rats were dehaired the back on the day before the test, patched with the placebo tape (Reference Formulation 1) containing no perospirone prepared in Reference Example 1 on the back, and administered orally perospirone hydrochloride hydrate in a dose of 3 mg/Kg or 0.5 mg/Kg. After administrations, a tryptamine hydrochloride was administered via tail veins in a dose of 40 mg/Kg at predetermined times as assessment times. An inhibitory effect of a tryptamine-induced behavior was determined in the same manner as Experiment 1.

Where a name gives a salt, the structure may show the parent alone.

With `O=C1C2CCCCC2(O)C(=O)N1CCCCN1CCN(c2nsc3ccccc23)CC1` (centres unmarked) [ID-15036], in the series with antiserotonin activity, the “antiserotonin activity compared to perospirone” value was “about ⅛”.
Regarding `O=C1[C@H]2CCCC[C@H]2C(=O)N1CCCCN1CCN(c2nsc3ccccc23)CC1` [perospirone hydrochloride hydrate], the “Efficacy (positive numbers/total numbers)” value in series [1] (oral 2 mg/Kg, 1 hour after administration) is 2/5; in series [1] (oral 10 mg/Kg, 1 hour after administration), 5/5; in series [1] (oral 10 mg/Kg, 10 hours after administration), 4/5; in series [1] (oral 10 mg/Kg, 48 hours after administration), 0/5; in series [3] (oral 0.5 mg/Kg, 1 hour after administration) it was 0/5; in series [3] (oral 3 mg/Kg, 1 hour after administration), 3/5. In addition, in series [3] (oral 3 mg/Kg, 10 hours after administration), the “Efficacy (positive numbers/total numbers)” value is recorded as 0/7. For the same molecule, the “time of maximum serum concentrations after administration” value in series [2] amounted to 30 min.
As to `O=C1[C@H]2CCCC[C@H]2C(=O)N1CCCCN1CCN(c2nsc3ccccc23)CC1` [perospirone, cis-N-[4-[4-(1,2-benzisothiazol-3-yl)-1-piperazinyl]butyl]cyclohexane-1,2-dicarboximide], the antidopaminergic activities result in series [1] (oral administration) was “showed antidopaminergic activities 1 and 10 hours after administration but not 48 hours after administration”. In series [3] (oral administration, group of 3 mg/Kg), the antiserotonin activities result was “antiserotonin activities could not be recognized 10 hours after administration”.

Source of the values: patent US20070254887A1, “Pharmaceutical Composition for Transdermal Administration of Perospirone” (priority 2004, published 2007).
